Data taken from patent US12103936B2, “Crystal form of hepatitis B surface antigen inhibitor” (FUJIAN AKEYLINK BIOTECHNOLOGY CO., LTD., priority 2018, dated 2024).

Experiments:
[1] = tested on: HBsAg; assay: HBV in vitro test in HepG2.2.15 cells, hepatitis B surface antigen by ELISA; assay type: cell-based; settings: Hepatitis B virus, HepG2.2.15, 192 h, read-out: EC50 against HBsAg
Protocol: (§1) 1. Cell Line: HepG2.2.15 Cells
(§2) • Pancreatin (Invitrogen-25300062) • DPBS (Corning-21031CVR) • DMSO (Sigma-D2650-100 mL) • High-throughput DNA purification kit (QIAamp 96 DNA Blood Kit, Qiagen-51162) • Quantitative quick start universal probe reagent (FastStart Universal Probe Master, Roche-04914058001) • Hepatitis B surface antigen quantitative test kit (Autobio, CL0310) 3. Consumables and Instruments: • 96-well cell culture plate (Cornin-3599) • CO2 incubator (HERA-CELL-240) • Optical sealing film (ABI-4311971) • Quantitative PCR 96-well plate (Applied Biosystems-4306737) • Fluorescence quantitative PCR instrument (Applied Biosystems-7500 real time PCR system) Experimental Methods: • 1. HepG2.2.15 cells (4×10^4 cells/well) were seeded to a 96-well plate and cultured overnight at 37° C., 5% CO2. • 2. On the day 2, the compound was diluted to a total of 8 concentrations, with a 3-fold gradient dilution. Different concentrations of compounds were added into the culture wells in duplicate wells. The final concentration of DMSO in the culture medium was 0.5%. 10 μM ETV (Entecavir) was used as a 100% inhibition control; 0.5% DMSO was used as a 0% inhibition control. • 3. […]
(§3) 50 μL of sample and standard were added into a reaction plate respectively, followed by addition of 50 μL of enzyme conjugate into each well. […] Chemoluminescence intensity was determined by an ELISA finally. • 9.

[2] = tested on: HBV-DNA; assay: HBV in vitro test in HepG2.2.15 cells, HBV-DNA by quantitative PCR; assay type: cell-based; settings: Hepatitis B virus, 192 h, culture medium collected on day 8, read-out: EC50 against HBV-DNA
Protocol: as §1, §2, §3

[3] = tested on: HBsAg; assay: In vivo efficacy study in AAV/HBV mice model, HBsAg content in serum; design: species or system C57BL/6 mice; settings: PO
Description: C57BL/6 mice, 10% HP-β-CD as vehicle, TDF ([…]) as refer compound, the compound of formula (I), and recombinant virus rAAV8-1.3HBV.
The reagents of the present project mainly included QIAamp96 DNA kit and TaqMan® Universal PCR Master Mix, hepatitis B surface antigen test kit.
The instrument included centrifuge (Beckman Allegra X-15R), tissue grinder (QIAGEN-Tissue lyser II) and spectrophotometer (Thermo-NANODROP 1000).
• a) All mice were administrated orally on the day 28 after being injected with virus, the day of administration was designated as day 0. Before administration, serum was collected by submandibular blood sampling for all mice. The mice were administration once a day for four weeks. The detailed dosage regimen was shown in Table 3. • b) Serum was collected by submandibular blood sampling for all mice twice a week, with each sampling volume being approximately 100 μL. The detailed blood sampling time is shown in Table 3. • c) On the day 28, all mice were euthanized and the blood was collected from the heart for serum collection. • d) All serum samples were sent for analysis.
The anti-HBV activity of the test compound in AAV/HBV mice model was evaluated by determining the content of HBsAg in the serum of the mice.

[4] = tested on: surface antigens; settings: woodchuck model, single drug; cited from earlier work
[5] = tested on: HBV-DNA; settings: woodchuck model, single drug; cited from earlier work
[6] = 10 mg/kg, detection date day 11
[7] = 10 mg/kg, detection date day 14
[8] = 10 mg/kg, detection date day 18
[9] = 10 mg/kg, detection date day 21
[10] = 10 mg/kg, detection date day 25
[11] = 10 mg/kg, detection date day 28
[12] = 10 mg/kg, detection date day -1

COCCCOc1cc2c(cc1OC)-c1cc(=O)c(C(=O)O)cn1[C@H](C(C)(C)C)CO2 [the compound of formula (I)]
EC50 [1]: 3.88 nM | EC50 [2]: 2.55 nM | HBsAg content in mice ([3]; 3 mg/kg, detection date day 4): 3.68 IU/mL | HBsAg content in mice ([3]; 3 mg/kg, detection date day 7): 3.70 IU/mL | HBsAg content in mice ([3]; 3 mg/kg, detection date day 11): 3.76 IU/mL | HBsAg content in mice ([3]; 3 mg/kg, detection date day 14): 3.70 IU/mL | HBsAg content in mice ([3]; 3 mg/kg, detection date day 18): 3.85 IU/mL | HBsAg content in mice ([3]; 3 mg/kg, detection date day 21): 3.78 IU/mL | HBsAg content in mice ([3]; 3 mg/kg, detection date day 25): 3.76 IU/mL | HBsAg content in mice ([3]; 3 mg/kg, detection date day 28): 3.96 IU/mL | HBsAg content in mice ([3]; 3 mg/kg, detection date day -1): 4.54 IU/mL | HBsAg content in mice ([3]; 10 mg/kg, detection date day 4): 3.56 IU/mL | HBsAg content in mice ([3]; 10 mg/kg, detection date day 7): 3.69 IU/mL | HBsAg content in mice [3, 6]: 3.92 IU/mL | HBsAg content in mice [3, 7]: 3.61 IU/mL | HBsAg content in mice [3, 8]: 3.90 IU/mL | HBsAg content in mice [3, 9]: 3.75 IU/mL | HBsAg content in mice [3, 10]: 3.83 IU/mL | HBsAg content in mice [3, 11]: 3.87 IU/mL | HBsAg content in mice [3, 12]: 4.51 IU/mL | HBsAg content in mice ([3]; 30 mg/kg, detection date day 4): 3.38 IU/mL | HBsAg content in mice ([3]; 30 mg/kg, detection date day 7): 3.44 IU/mL | HBsAg content in mice ([3]; 30 mg/kg, detection date day 11): 3.64 IU/mL | HBsAg content in mice ([3]; 30 mg/kg, detection date day 14): 3.40 IU/mL | HBsAg content in mice ([3]; 30 mg/kg, detection date day 18): 3.55 IU/mL | HBsAg content in mice ([3]; 30 mg/kg, detection date day 21): 3.46 IU/mL | HBsAg content in mice ([3]; 30 mg/kg, detection date day 25): 3.37 IU/mL | HBsAg content in mice ([3]; 30 mg/kg, detection date day 28): 3.53 IU/mL | HBsAg content in mice ([3]; 30 mg/kg, detection date day -1): 4.48 IU/mL

COCCCOc1cc2c(cc1OC)-c1cc(=O)c(C(=O)O)cn1[C@H](C(C)C)C2 [RG7834, reference compound]
reduction of surface antigens [4]: 2.57 Log | HBsAg content in mice ([3]; 10 mg/kg, detection date day 4): 3.54 IU/mL | HBsAg content in mice ([3]; 10 mg/kg, detection date day 7): 3.58 IU/mL | HBsAg content in mice [3, 6]: 3.70 IU/mL | HBsAg content in mice [3, 7]: 3.49 IU/mL | HBsAg content in mice [3, 8]: 3.70 IU/mL | HBsAg content in mice [3, 9]: 3.52 IU/mL | HBsAg content in mice [3, 10]: 3.50 IU/mL | HBsAg content in mice [3, 11]: 3.66 IU/mL | HBsAg content in mice [3, 12]: 4.56 IU/mL | reduction of HBV-DNA [5]: 1.7 Log
